The results in this text go back to patent publication US20040152895A1, “Sulfonamides” (priority 2003, published 2004).

This experiment concerns the target T1, human and rat GPR-14 (UniProt Q9UKP6).
T1 sequence (Q9UKP6 1-389): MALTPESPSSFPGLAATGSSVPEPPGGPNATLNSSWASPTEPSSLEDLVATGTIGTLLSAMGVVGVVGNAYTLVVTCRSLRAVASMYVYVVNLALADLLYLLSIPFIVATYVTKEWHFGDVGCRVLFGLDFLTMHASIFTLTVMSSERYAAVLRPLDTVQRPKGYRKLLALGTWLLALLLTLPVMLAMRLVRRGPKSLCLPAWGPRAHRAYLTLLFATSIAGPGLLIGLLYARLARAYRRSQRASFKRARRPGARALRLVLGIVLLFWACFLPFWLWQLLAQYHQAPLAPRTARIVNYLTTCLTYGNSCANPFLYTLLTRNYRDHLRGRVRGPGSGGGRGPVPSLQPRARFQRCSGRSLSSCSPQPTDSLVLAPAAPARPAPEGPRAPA
The experiment in a line: Radioligand binding assay ([125I] h-U-II). Conditions: HEK-293 cell membranes, 200 pM [125I] h-U-II. As for the experimental part: HEK-293 cell membranes containing stable cloned human and rat GPR-14 (20 ug/assay) were incubated with 200 pM [125I] h-U-II (200 Ci/mmol^−1 in the presence of increasing concentrations of test compounds in DMSO (0.1 nM to 10 uM), in a final incubation volume of 200 ul (20 mM Tris-HCl, 5 mM MgCl2). Incubation was done for 30 minutes at room temperature followed by filtration GF/B filters with Brandel cell harvester. ^125I labeled U-II binding was quantitated by gamma counting. Nonspecific binding was defined by ^125I U-II binding in the presence of 100 nM of unlabeled human U-II. Analysis of the data was performed by nonlinear least square fitting.

The term Ki denotes a dissociation constant, usually derived from enzyme kinetics or from competition with a known ligand. The low end stands for higher affinity, the high end for lower affinity. As for `CCCSc1ncc(S(=O)(=O)Nc2ccc(Cl)c(OCCN(C)C)c2)c(OC)n1` [Example 1, 4-methoxy-2-propylsulfanyl-pyrimidine-5-sulfonic Acid [4-chloro-3-(2-dimethylamino-ethoxy)-phenyl]-amide], the Ki amounted to 220 nM.
